Laboratory results: PubChem BioAssay (NCI)
Where “and” joins values, the source holds several entries; their conditions need not be identical. Equal entries are not always repeated.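 Interpolation was linear, between the two tested concentrations surrounding the appropriate level; five concentrations were tested over 48 hours in 96-well plates. GI50 marks 50% less growth. TGI denotes the concentration required for complete inhibition of growth.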

How the values were obtained:
Assay in all cases: inhibition of tumour cell growth, NCI panel, 48 h
SN12C renal = test system: SN12C renal
NCI-H522 lung = test system: NCI-H522 lung
OVCAR-8 ovarian = test system: OVCAR-8 ovarian
RXF 393 renal = test system: RXF 393 renal
T-47D breast = test system: T-47D breast
CAKI-1 renal = test system: CAKI-1 renal
DU-145 prostate = test system: DU-145 prostate
M14 melanoma = test system: M14 melanoma
OVCAR-3 ovarian = test system: OVCAR-3 ovarian
COLO 205 colon = test system: COLO 205 colon

SMILES | GI50 (SN12C renal) | TGI (SN12C renal) | GI50 (NCI-H522 lung) | TGI (NCI-H522 lung) | GI50 (OVCAR-8 ovarian) | TGI (OVCAR-8 ovarian) | GI50 (RXF 393 renal) | TGI (RXF 393 renal) | GI50 (T-47D breast) | TGI (T-47D breast) | GI50 (CAKI-1 renal) | TGI (CAKI-1 renal) | GI50 (DU-145 prostate) | TGI (DU-145 prostate) | GI50 (M14 melanoma) | TGI (M14 melanoma) | GI50 (OVCAR-3 ovarian) | TGI (OVCAR-3 ovarian) | GI50 (COLO 205 colon) | TGI (COLO 205 colon)
C=C1C(=O)O[C@@H]2C[C@@H]1CC[C@@]1(C)O[C@@H]1CC[C@@]1(C)O[C@@H]1CC[C@@]2(C)O | 16.1 µM | 40.1 µM | 17.5 µM | 45.4 µM | 29 µM | > 100 µM | 42.8 µM | > 100 µM | 2.09 µM | 17 µM | 22.7 µM | 72.8 µM | 30.3 µM | > 100 µM | 21.4 µM | 42.4 µM | 15.7 µM | 37.3 µM | 14.4 µM | 31 µM
CC[CH2][Sn]([Cl])([Cl])[CH2]CC | 7.08 µM | 20.2 µM | 0.354 µM | 1.62 µM | 14.7 µM | 30.1 µM | 6.96 µM | 20.6 µM | 1.17 µM | 3.36 µM | 6.69 µM | 21 µM | 14.5 µM | 28.6 µM | 11.1 µM | 24.1 µM | 12.9 µM | 26.1 µM | 8.53 µM | 22.5 µM
CC[C@@H](C(=O)[C@@H](C)[C@@H](O)[C@H](C)[C@@H]1O[C@@H]([C@@H](CC)C(=O)O)CC[C@@H]1C)[C@H]1OC2(C=C[C@@H](O)[C@]3(CC[C@@](C)([C@H]4CC[C@](O)(CC)[C@H](C)O4)O3)O2)[C@H](C)C[C@@H]1C (stereo not given in full) | 0.14 µM | > 50 µM | 0.0774 µM | 0.605 µM | 0.823 µM | > 48.3 µM | 0.0485 µM | 1.85 µM | 0.174 µM | 10.4 µM | 1.2 µM | > 50 µM | 1.58 µM | > 50 µM | 0.79 µM | 1.88 µM | 0.101 µM | 15.1 µM | 0.124 µM | 5.47 µM
CC(=O)OC(C)(C)N=Nc1ccc(Br)cc1 |  | > 100 µM |  | 33.8 µM |  | 64.1 µM |  | > 60.4 µM |  | 44.4 µM |  | 48.3 µM |  | > 100 µM |  | > 100 µM |  | > 100 µM |  | 1.03 µM
CN(C)CCCNc1nccc(-c2c(-c3ccc(F)cc3)nn3cc(C(F)(F)F)ccc23)n1 | 15.3 µM | > 25 µM | 6.77 µM | > 25 µM | > 20.1 µM | > 25 µM | 3.34 µM | 9.6 µM | 12.5 µM | > 25 µM | 12.3 µM | > 25 µM | > 16.6 µM | > 25 µM | 4.37 µM | 9.06 µM | 8.88 µM | > 25 µM | 4.23 µM | 8.71 µM
CCC1CC(=O)N(SCC(N)C(=O)O)C1=O (stereo not given) |  | > 100 µM |  | > 100 µM |  | > 100 µM |  | > 100 µM |  | > 100 µM |  | > 100 µM |  | > 100 µM |  | > 100 µM |  | > 100 µM |  | > 100 µM
O=C(c1cccs1)c1c(C(F)(F)F)n([O-])c2ccc(F)cc2[n+]1=O | 1.58 µM | 4.33 µM | 1.46 µM | 2.88 µM | 0.528 µM | 1.34 µM | 1.2 µM | 2.74 µM | 0.69 µM | 3.23 µM | 1.62 µM | 3.14 µM | 1.15 µM | 3.12 µM | 1.54 µM | 3 µM | 0.793 µM | 2.35 µM | 0.456 µM | 1.62 µM
O=C1/C(=C/c2ccccc2)CCC/C1=C\c1ccccc1 | 7.33 µM | 12.6 µM and 32.8 µM and 34.9 µM | 6.46 µM and 13.7 µM and 15.7 µM | 11.8 µM and 31.8 µM and 35 µM | 3.57 µM | 13.6 µM and 28.1 µM and 25.4 µM | 7.73 µM and 4.27 µM | 13.4 µM and 32.3 µM and 17.8 µM | 15.1 µM | 11.6 µM and 38.6 µM | 7.03 µM and 17 µM | 13 µM and 46.4 µM and 44.7 µM | 16.9 µM | 13.5 µM and 34 µM | 2.96 µM | 12.9 µM and 19 µM and 7.88 µM | 6.25 µM and 4.04 µM | 11.3 µM and 24 µM and 13 µM | 6.31 µM and 15.1 µM | 11.5 µM and 32.7 µM and 35.2 µM
CC[C@H](C)n1cc(C)c2c(C(=O)NCc3c(C)cc(C)[nH]c3=O)cc(-c3ccc(N4CCNCC4)nc3)cc21 | 13.8 µM and 13.7 µM | 27.9 µM and 28.6 µM | 17.6 µM and 14 µM | 34.2 µM and 29.5 µM | 18.5 µM and 17.7 µM | 37.4 µM and 37.6 µM | 9 µM and 7.71 µM | 23.7 µM and 23.2 µM | 16.6 µM and 11.4 µM | 36.3 µM and 28.4 µM | 16.1 µM and 15.4 µM | 29.6 µM and 28.8 µM | 14.7 µM and 15.1 µM | 27.9 µM and 28.7 µM | 9.56 µM and 4.52 µM | 22.5 µM and 14.3 µM | 14.2 µM | 27.4 µM and 28.2 µM | 5.25 µM and 2.93 µM | 18.6 µM and 8.85 µM
CCOC(=O)c1c(C)n2c(=O)cc(C)c3c(OC(C)=O)c(OC(C)=O)cc1c32 | 4.97 µM | 28.2 µM | 4.11 µM | 15.1 µM | 3.91 µM | > 61.2 µM | 3.43 µM | 15.8 µM | 4.08 µM | > 40.9 µM | 6.37 µM | > 65.9 µM | 6.33 µM | 22.2 µM | 3.96 µM | 18.2 µM | 3.49 µM | > 62.7 µM | 4.62 µM | 18.7 µM
CC1(C)CC2C=C(C=O)C3(C=O)CC3(C)C2C1 (stereo not given) |  | 8.23 µM |  | 2.51 µM |  | 6.1 µM |  | 3.41 µM |  | 9.02 µM |  | 4.26 µM |  | 17.8 µM |  | 5.24 µM |  | 2.27 µM |  | 4.25 µM
COc1ccc2c(=O)c3cc([N+](=O)[O-])ccc3n(C)c2c1 |  | > 100 µM |  | > 100 µM |  | > 100 µM |  | > 100 µM |  | > 100 µM |  | > 100 µM |  | > 100 µM |  | > 100 µM |  | > 100 µM |  | > 100 µM
C=C1CCC2C3(C)COC(c4ccc(SC)cc4)OC3CCC2(C)C1C/C=C1/C(=O)OCC1O (stereo not given) | 3.94 µM | 18.6 µM | 1.92 µM | 5.98 µM | 2.14 µM | 6.56 µM | 4.51 µM | 15.6 µM | 2.53 µM | 13.7 µM | 11.2 µM | 28.2 µM | 11.5 µM | 23.7 µM | 6.53 µM | 17.7 µM | 2.8 µM | 6.91 µM | 7.72 µM | 20.6 µM
